From paper PMC12382614, “(Oxidopyridyl)Porphyrins of Different Lipophilicity: Photophysical Properties, ROS Production and Phototoxicity on Melanoma Cells Under CoCl2-Induced Hypoxia” (Antioxidants, 2025)
Where “and” joins values, the source holds several entries; their conditions need not be identical. Equal entries are not always repeated. Where two headings read alike, the source gives them in different places.

How the values were obtained:
[1] = UV-Vis absorption spectra in MeOH; assay type: physicochemical
Method: The absorption spectra of (oxidopyridyl)porphyrins were recorded in HPLC grade MeOH on a Cary UV 60 (Agilent Technologies, Santa Clara, CA, USA), in a wavelength range of 300–700 nm. The fluorescence spectra in HPLC grade MeOH were recorded on a Cary Eclipse (Agilent Technologies) in a wavelength range of 500–800 nm after excitation at the Soret band wavelength (λ ~ 420 nm). The slits of the spectrometer were set to a bandpass of 5 nm for the excitation and 5 nm for the emission. To calculate the fluorescence quantum yields, the measurements were conducted on an FS5 Edinburgh Instruments spectrometer. Prior to taking the measurements, the solutions were purged with high-purity N2 for at least 15 min. The absorbance of the solutions was set to A < 0.1 at 405 nm and 550 nm, which settings were used for the excitation process. Emission was recorded from 550 to 800 nm, with slits set to the bandpass corresponding to 2 nm for the excitation, and 3 nm for the emission. Fluorescence quantum yield (ΦFL) was calculated in comparison to the tetraphenylporphyrin (TPP; ΦFL = 0.11 [23]) as a standard, according to Equation (S1) and following an equation previously described elsewhere.

[2] = Fluorescence decay by time-correlated single-photon counting (TC-SPC); assay type: physicochemical; details: MeOH, N2, λex 405 nm
Method: Time-correlated single-photon counting (TC-SPC) was used to obtain information about fluorescence decays. All measurements were performed on an FS5 Edinburgh Instruments device with a pulsed laser at 405 nm wavelength, which was used for the excitation process (pulse duration 60 ps). Fluorescence signals were monitored at 660 nm over 1023 channels, with a time increment of ≈49 ps/channel. Porphyrins were dissolved in MeOH (HPLC grade), with the absorbance adjusted to 0.1 a.u. at the excitation wavelength, and the solution was degassed with N2 for 15 min before the measurements were taken. All the decays were collected until they reached 3000 counts in the peak channel. A scattering solution, a silica gel suspension in H2O, was used to obtain the instrument response function (IRF). The histograms were analysed using a nonlinear least-squares deconvolution method via the software implemented with the instrument.

[3] = Laser flash photolysis (LFP), triplet excited state properties; assay type: physicochemical; details: MeOH
Method: Laser flash photolysis (LFP) was performed using an LP980 transient absorption spectrometer (Edinburgh Instruments) equipped with a continuous beam (or pulse mode) Xenon lamp passing through the sample. A nanosecond Nd:YAG laser (Quantel, Q-smart 450, 5 ns pulse duration, 10 Hz, excitation wavelength 355 nm) was then used to excite the sample perpendicular to the lamp beam. The laser beam energy was adjusted to below 5 mJ. The ground state absorbance of the porphyrins in MeOH was adjusted to 0.20–0.25 at 355 nm (the laser excitation wavelength) and the solutions were purged with high-purity N2 for at least 15 min prior to taking the measurements. The samples were prepared for kq determination in an air atmosphere that was N2-purged for 15 min and O2-purged for 15 min before the measurements were taken. The ground state absorption spectra of the samples were also recorded after purging the sample with N2 or O2, and after transient absorption (TAS) measurements were taken to track the differences in every step of the measurement process to ensure that no photoproducts were formed. All measurements were performed at 25 °C in 1 cm quartz cuvettes. Laser flash photolysis was used to measure the kinetics of triplet state depopulation (τT) and triplet-triplet absorption spectra, and to calculate the intersystem crossing quantum yield (ΦISC) and quenching rate constants of triplet excited states by molecular oxygen (kq). To calculate ΦISC, the first step was the calculation of the molar absorption coefficient of the triplet state using the singlet depletion method, completing the first step according to Equation (S2). The ΦISC values were estimated by using a comparative method with TPP (ΦISC = 0.87 in toluene) as the standard. The ΦISC was calculated according to Equation (S3). Triplet excited state lifetimes were determined by fitting the triplet decays to the equation for the mixed first- and second-order decay, as previously described, and the quenching rate constant of a triplet excited state by molecular oxygen was calculated using the Stern–Volmer equation (Equation (S4)).

MeWo cells = test: Intracellular localisation by fluorescence microscopy with DIOC6(3); assay type: cell-based, human; details: 5 µM in medium, 6 h
Method: In the localisation tests, the cells were incubated with porphyrins and DIO6(3), a marker for mitochondria and endoplasmic reticulum (ER), which was used to investigate the colocalisation of porphyrins with the mentioned organelles. All images were analysed using the ImageJ program, while Pearson’s correlation coefficient was calculated using the CellSense program, fluorescence microscope software produced by Olympus.
To determine any potential preference for the ER and mitochondria, the localisation of (oxidopyridyl)porphyrins substituted with an alkyl chain of 9, 13 and 17 C atoms was observed by fluorescence microscopy incubation with 3,3′-dihexyloxacarbocyanine iodide (DIOC6(3)), a marker that is commonly used to target vesicle membranes, mitochondria and ER [39].

HDF = test: Photocytotoxicity, MTT assay; assay type: cell-based, human; details: for IC50: Homo sapiens, HDF, light or radiation study, 6 h incubation, red light 643 nm 30 min
Method: (§1) For (photo)cytotoxicity assays, stock solutions of porphyrins were prepared in DMSO and dissolved in DMEM to the final concentrations. The porphyrin incubation time was 6h. Irradiation of the cells was with red light (λ = 643 nm) for 30 min (light dose, 3.6 J/cm^2). Nonirradiated cells were used to test the dark toxicity. All measurements were performed in three individual experiments, and the results are shown as the proliferation (%) of the cells and were calculated as IC50 values.
(§2) The cytotoxicity of (oxidopyridyl)porphyrins was assessed by an MTT assay on the HDF, MeWo and A375 cell lines after 6 h of incubation with porphyrins, without irradiation, or after 30 min of irradiation with red light (λ = 643 nm), and under conditions of normoxia or hypoxia. To induce hypoxia, 100 µM of CoCl2 was added at least two hours before the porphyrins. […] Oxygen is also one of the substrates for the activity of prolyl hydroxylases; therefore, in both cases, the result is the blockage of hydroxylation of HIF-1α and, consequently, its increase and stabilisation, which, in the case of CoCl2-induced hypoxia, can be maintained for several hours.

[4] = system: HDF, MeWo and A375 cell lines; test: (Photo)cytotoxicity MTT assay, statements made for all cell lines; assay type: cell-based, human; details: Homo sapiens, light or radiation study; irradiation 643 nm, with or without CoCl2; read-out: IC50 in all the tested cells
Method: as §1, §2

ε Qx (0-0) [1]: 1600 M⁻¹ cm⁻¹ | ε Qx (1-0) [1]: 4500 M⁻¹ cm⁻¹ | ε Qy (0-0) [1]: 4300 M⁻¹ cm⁻¹ | ε Qy (1-0) [1]: 15000 M⁻¹ cm⁻¹ | ε Soret (B) [1]: 275400 M⁻¹ cm⁻¹ | λabs Qx (0-0) [1]: 646 nm | λabs Qx (1-0) [1]: 587 nm | λabs Qy (0-0) [1]: 547 nm | λabs Qy (1-0) [1]: 512 nm | λabs Soret (B) [1]: 417 nm | contribution of τ1 (% of the decay) [2]: 1% | contribution of τ2 (% of the decay) [2]: 99% | τFL, longer decay time τ2 [2]: 7.82 ± 0.02 ns and 7.82 ns | τFL, short decay time τ1 [2]: 0.57 ± 0.08 ns and 0.57 ns | τT (lifetime of 3PS*) [3]: 0.96 ms | t from transient absorption kinetics at 450 nm ([3]; N2, 355 nm laser excitation, Figure S9 inset): 987 µs | τT (lifetime of the triplet excited state) ([3]; N2-purged, 25 °C): 960 ± 30 μs | kq (O2) (quenching rate constant of the triplet excited state by O2) ([3]; Stern–Volmer): 1.4e+09 M⁻¹ s⁻¹ | ΦISC (quantum yield of intersystem crossing) ([3]; comparative method with TPP, estimated): 0.51 | εT-T (molar absorption coefficient of the triplet state) ([3]; singlet depletion method): 58 300 M^−1cm^−1 | solubility (porphyrin not internalised, aggregates outside the cells) (MeWo cells): low solubility
SMILES: CCCCCCCCCCCCCCCCCC(=O)Nc1ccc(-c2c3nc(c(-c4ccc[n+]([O-])c4)c4ccc([nH]4)c(-c4ccc[n+]([O-])c4)c4nc(c(-c5ccc[n+]([O-])c5)c5ccc2[nH]5)C=C4)C=C3)cc1 [TOPyP3-C17H35, 5-(4-Octadecanamidophenyl)-10,15,20-tris(1-oxido-3-pyridyl)porphyrin]
reduction in the proliferation of cells (HDF; 1 µM, irradiation 643 nm, normoxia): ~ 40% | IC50 (HDF; 3.6 J/cm^2, 100 μM CoCl2 at least 2 h before porphyrin, read-out: IC50 HDF CoCl2): 1.09 ± 0.29 µM | IC50 (HDF; 3.6 J/cm^2, normoxia, read-out: IC50 HDF No CoCl2): 1.31 ± 0.57 µM | IC50 [4]: ≤ 1 µM
